The source made the active and inactive calls. The calls are words filed in the database; no cut-off is given here.
Experiments:
[1] = Cytotoxicity against LPS/IFNgamma induced mouse RAW264.7 cells assessed as inhibition of cell growth preincubated for 24 hrs followed by LPS/IFNgamma stimulation and measured after 24 hrs by SRB assay; format: toxicity, cell-based; conditions: RAW264.7 cells induced with LPS/IFNgamma, time 48 hrs
[2] = Toxicity in Kunming mouse assessed as increase in body weight at 400 mg/kg, po measured for 15 days (reference value: 12.38%); format: organism-based; conditions: in vivo, 360 h, time 15 day
[3] = Cytotoxicity against human HCT-116 cells assessed as inhibition in cell proliferation; format: toxicity, cell-based
HCT-116 [4] = experiment: Inhibition of TNF-alpha induced NF-kB activation in human HCT-116 cells assessed as decrease in phosphorylated IkappaBalpha protein expression preincubated for 4 hrs and followed TNF-alpha stimulation and measured after 10 mins by Western blot analysis; format: cell-based; conditions: dose 12.5-50 µM, time 250.0 min
DLD-1 [5] = experiment: Effect on IKK protein expression in TNF-alpha stimulated human DLD-1 cells at 12.5 to 50 uM preincubated for 4 hrs and followed TNF-alpha stimulation and measured after 10 mins by Western blot analysis; format: functional, cell-based; conditions: dose 12.5-50 µM, time 250.0 min
[6] = biological target: T1, NF-kappa-B inhibitor alpha (Homo sapiens) (UniProt P25963); experiment: Inhibition of proteasomal degradation of IkappaBalpha in TNF-alpha induced human DLD-1 cells assessed as increase in IkappaBalpha protein expression at 12.5 to 50 uM preincubated for 4 hrs and followed TNF-alpha stimulation and measured after 10 mins by Western blot analysis; format: cell-based; conditions: dose 12.5-50 µM, time 250.0 min
T1 sequence (whole entry): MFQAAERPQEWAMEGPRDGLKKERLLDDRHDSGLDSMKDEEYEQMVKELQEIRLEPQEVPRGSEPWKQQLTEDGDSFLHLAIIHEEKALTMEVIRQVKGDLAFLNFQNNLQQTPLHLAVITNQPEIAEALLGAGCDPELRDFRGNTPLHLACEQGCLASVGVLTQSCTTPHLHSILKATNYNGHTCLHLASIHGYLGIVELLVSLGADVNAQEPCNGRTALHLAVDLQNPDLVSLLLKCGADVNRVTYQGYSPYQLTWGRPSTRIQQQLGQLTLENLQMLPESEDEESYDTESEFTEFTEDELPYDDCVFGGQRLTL

[7] = biological target: T1, NF-kappa-B inhibitor alpha (Homo sapiens); experiment: Inhibition of proteasomal degradation of IkappaBalpha in TNF-alpha induced human HCT-116 cells assessed as increase in IkappaBalpha protein expression at 12.5 to 50 uM preincubated for 4 hrs and followed TNF-alpha stimulation and measured after 10 mins by Western blot analysis; format: cell-based; conditions: dose 12.5-50 µM, time 250.0 min
DLD-1 [8] = experiment: Inhibition of TNF-alpha induced activation of MAPK signaling pathway in human DLD-1 cells assessed as change in phosphorylated p38 level at 6.25 to 50 uM preincubated for 4 hrs and followed TNF-alpha stimulation and measured after 10 mins by Western blot analysis; format: cell-based; conditions: dose 6.25-50 µM, time 250.0 min
DLD-1 [9] = experiment: Effect on p38 protein expression in TNF-alpha stimulated human DLD-1 cells at 6.25 to 50 uM preincubated for 4 hrs and followed TNF-alpha stimulation and measured after 10 mins by Western blot analysis; format: functional, cell-based; conditions: dose 6.25-50 µM, time 250.0 min
HCT-116 [10] = experiment: Upregulation of ERK protein expression in TNF-alpha stimulated human HCT-116 cells at 50 uM preincubated for 4 hrs and followed TNF-alpha stimulation and measured after 10 mins by Western blot analysis; format: functional, cell-based; conditions: time 250.0 min
DLD-1 [11] = experiment: Upregulation of JNK protein expression in TNF-alpha stimulated human DLD-1 cells at 50 uM preincubated for 4 hrs and followed TNF-alpha stimulation and measured after 10 mins by Western blot analysis; format: functional, cell-based; conditions: time 250.0 min
HCT-116 [12] = experiment: Activation of MAPK signaling pathway in TNF-alpha stimulated human HCT-116 cells assessed as increase in phospho-JNK protein expression at 50 uM preincubated for 4 hrs and followed TNF-alpha stimulation and measured after 10 mins by Western blot analysis; format: cell-based; conditions: filed as activator, time 250.0 min
DLD-1 [13] = experiment: Activation of MAPK signaling pathway in TNF-alpha stimulated human DLD-1 cells assessed as increase in phospho-JNK protein expression at 50 uM preincubated for 4 hrs and followed TNF-alpha stimulation and measured after 10 mins by Western blot analysis; format: cell-based; conditions: filed as activator, time 250.0 min
DLD-1 [14] = experiment: Inhibition of TNF-alpha induced MAPK signaling pathway activation in human DLD-1 cells assessed as decrease in phospho-JNK protein expression at 12.5 uM preincubated for 4 hrs and followed TNF-alpha stimulation and measured after 10 mins by Western blot analysis; format: cell-based; conditions: time 250.0 min
HCT-116 [15] = experiment: Inhibition of TNF-alpha induced MAPK signaling pathway activation in human HCT-116 cells assessed as decrease in phospho-ERK protein expression at 6.25 uM preincubated for 4 hrs and followed TNF-alpha stimulation and measured after 10 mins by Western blot analysis; format: cell-based; conditions: time 250.0 min
DLD-1 [16] = experiment: Inhibition of TNF-alpha induced MAPK signaling pathway activation in human DLD-1 cells assessed as decrease in phospho-ERK protein expression at 12.5 uM preincubated for 4 hrs and followed TNF-alpha stimulation and measured after 10 mins by Western blot analysis; format: cell-based; conditions: time 250.0 min
[17] = Cytotoxicity against human DLD-1 cells assessed as inhibition in cell proliferation; format: toxicity, cell-based
Mus musculus [18] = experiment: Anti-inflammatory activity in po dosed C57BL/6 mouse model of DSS-induced acute ulcerative colitis assessed as reduction in IL-6 mRNA expression in colon administered once a day for 7 days by RT-PCR analysis; format: functional, organism-based; conditions: dose 100-300 mg/kg, time 7.0 day
[19] = Toxicity in C57BL/6 mouse model of DSS-induced acute ulcerative colitis assessed as effect on heart tissue at 100 to 300 mg/kg, po administered once a day for 7 days by H and E staining based analysis; format: organism-based; conditions: in vivo, 168 h, dose 100-300 mg/kg, time 7 day
[20] = Toxicity in C57BL/6 mouse model of DSS-induced acute ulcerative colitis assessed as effect on spleen tissue at 100 to 300 mg/kg, po administered once a day for 7 days by H and E staining based analysis; format: organism-based; conditions: in vivo, 168 h, dose 100-300 mg/kg, time 7 day
[21] = Toxicity in C57BL/6 mouse model of DSS-induced acute ulcerative colitis assessed as effect on kidney tissue at 100 to 300 mg/kg, po administered once a day for 7 days by H and E staining based analysis; format: organism-based; conditions: in vivo, 168 h, dose 100-300 mg/kg, time 7 day
[22] = Toxicity in C57BL/6 mouse model of DSS-induced acute ulcerative colitis assessed as effect on stomach at 100 to 300 mg/kg, po administered once a day for 7 days by H and E staining based analysis; format: organism-based; conditions: in vivo, 168 h, dose 100-300 mg/kg, time 7 day
Mus musculus [23] = experiment: Anti-inflammatory activity in C57BL/6 mouse model of DSS-induced acute ulcerative colitis assessed as reduction in tissue lesions at 100 to 300 mg/kg, po administered once a day for 7 days by H and E staining based analysis; format: functional, organism-based; conditions: dose 100-300 mg/kg, time 7.0 day
Mus musculus [24] = experiment: Anti-inflammatory activity in C57BL/6 mouse model of DSS-induced acute ulcerative colitis assessed as reversal of DSS-induced weight loss at 100 to 300 mg/kg, po administered once a day for 7 days; format: functional, organism-based; conditions: dose 100-300 mg/kg, time 7.0 day
[25] = Toxicity in Kunming mouse assessed as number of mouse survived at 400 mg/kg, po measured for 15 days; format: organism-based; conditions: in vivo, 360 h, time 15 day
[26] = Toxicity in Kunming mouse assessed as number of mouse survived at 667 mg/kg, po measured for 15 days; format: organism-based; conditions: in vivo, 360 h, time 15 day
[27] = Toxicity in Kunming mouse assessed as number of mouse survived at 1111 mg/kg, po measured for 15 days; format: organism-based; conditions: in vivo, 360 h, time 15 day

`COC(=O)C1=C(C(=O)OC)C2OC1CC2C#Cc1ccc(C)cc1` (configuration not stated) gave a CC50 at 24 h [1] of 12.2 µM, an Activity [2] of 13.21% and an IC50 [3] of 14.3 µM. For the same molecule, the inhibition (HCT-116 [4]) was “Dose-Dependent Effect”, the Activity (DLD-1 [5]) was “inactive” and the inhibition [6] was “Active”. The inhibition [7] was “Active”, the inhibition (DLD-1 [8]) was “inactive” and the Activity (DLD-1 [9]) was “inactive”. The Activity (HCT-116 [10]) was “Active”, the Activity (DLD-1 [11]) was “Active” and the Activity (HCT-116 [12]) was “Active”. The Activity (DLD-1 [13]) was “Active”, the inhibition (DLD-1 [14]) was “Active” and the inhibition (HCT-116 [15]) was “Active”. The inhibition (DLD-1 [16]) was “Active”, the IC50 [17] was 8.24 µM and the Activity (Mus musculus [18]) was “Dose-Dependent Effect”. The Activity [19] was “Non-Toxic”, the Activity [20] was “Non-Toxic” and the Activity [21] was “Non-Toxic”. For the same molecule, the Activity [22] was “Non-Toxic”, the Activity (Mus musculus [23]) was “Active” and the Activity (Mus musculus [24]) was “Active”. It also gave an Activity [25] of 0, an Activity [26] of 0 and an Activity [27] of 0.

Source: ChEMBL document CHEMBL5634091, “Cantharidin analogue alleviates dextran sulfate sodium-induced colitis in mice by inhibiting the activation of NF-κB signaling” (Eur J Med Chem, 2023)
